Values of other authors in patent US20100029716A1, “NOVEL 1,2,3,4- TETRAHYDROQUINOLINE DERIVATIVES” (CONCERT PHARMACEUTICALS, INC., priority 2006, published 2010).

Key:
[1] = healthy volunteers, 14-day dosing period
[2] = target: T1, human CETP (Homo sapiens, UniProt P11597); details: transgenic hCETP mice
T1 construct: host or cells: transgenic mice expressing human CETP and apolipoprotein A1 (hCETP mice)
T1 sequence (P11597 18-493): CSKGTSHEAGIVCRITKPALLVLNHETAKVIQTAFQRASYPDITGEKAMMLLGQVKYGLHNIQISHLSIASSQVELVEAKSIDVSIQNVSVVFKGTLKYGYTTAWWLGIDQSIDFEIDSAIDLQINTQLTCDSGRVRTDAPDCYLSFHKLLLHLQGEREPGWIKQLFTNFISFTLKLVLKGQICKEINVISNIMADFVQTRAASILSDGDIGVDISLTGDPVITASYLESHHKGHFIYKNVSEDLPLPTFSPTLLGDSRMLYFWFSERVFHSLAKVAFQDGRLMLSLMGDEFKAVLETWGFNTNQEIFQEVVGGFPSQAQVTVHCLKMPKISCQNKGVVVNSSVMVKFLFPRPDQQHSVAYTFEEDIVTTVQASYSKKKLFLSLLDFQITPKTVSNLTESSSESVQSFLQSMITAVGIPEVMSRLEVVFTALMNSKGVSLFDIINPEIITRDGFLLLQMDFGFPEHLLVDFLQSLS

[3] = tested on: atherosclerotic lesions; details: rabbit model of atherosclerosis
[4] = conventional formulations

- rate of cholesterol oleate transfer from LDL donor particles to HDL [2]: decreased rates
- HDL cholesterol ([2]; multiple dosing): increased HDL cholesterol
- aqueous solubility: poor
- oral bioavailability [4]: low
SMILES: CCOC(=O)N1c2ccc(C(F)(F)F)cc2[C@@H](N(Cc2cc(C(F)(F)F)cc(C(F)(F)F)c2)C(=O)OC)C[C@H]1CC [Compound 1, (2R,4S)-ethyl 4-((3,5-bis(trifluoromethyl)benzyl)-(methoxycarbonyl)amino)-2-ethyl-6-(trifluoromethyl)-3,4-dihydroquinoline-1(2H)-carboxylate]
- increase of HDL cholesterol levels [1]: up to 91%
- reduction of LDL cholesterol [1]: up to 42%
- formation of atherosclerotic lesions [3]: reduce the formation of atherosclerotic lesions
